Measurements published in PubChem BioAssay AID1963451 (Molecular Pharmacology Branch, DTP, NCI, 2024).
pIC50: −log10 of the molar value. Values joined by “and” are separate entries in the source; they are usually repeats but may differ in a detail not shown here. Identical values can stand only once.

Tested on: 521955-158-R6-J3-PDC complex spheroid growth, % test/control
Assay: Anticancer human tumor 521955-158-R6-J3-PDC patient-derived pancreatic carcinoma cell line growth inhibition [Asc]
Settings: for viability, T/C: stronger effect = lower value
How it was run: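 Tumor cells were grown as complex spheroids with human endothelial cells (HUVEC) and human mesenchymal stem cells as stroma. Agents were tested alone and in combination, in half-log steps down from the clinical Cmax, or from 10 microM where Cmax was unknown.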

[1] = curve of first compound, second compound 0.00316 µM
[2] = curve of first compound, second compound 0.01 µM
[3] = curve of first compound, second compound 0.0316 µM
[4] = curve of first compound, second compound 0.1 µM
[5] = curve of first compound, second compound 0.316 µM
[6] = curve of first compound, second compound 1 µM
[7] = second compound 0.00316 µM, first compound 0.00949 µM
[8] = second compound 0.00316 µM, first compound 0.03 µM
[9] = second compound 0.00316 µM, first compound 0.0949 µM
[10] = second compound 0.00316 µM, first compound 0.3 µM
[11] = second compound 0.00316 µM, first compound 0.949 µM
[12] = second compound 0.00316 µM, first compound 3 µM
[13] = second compound 0.01 µM, first compound 0.00949 µM
[14] = second compound 0.01 µM, first compound 0.03 µM
[15] = second compound 0.01 µM, first compound 0.0949 µM
[16] = second compound 0.01 µM, first compound 0.3 µM
[17] = second compound 0.01 µM, first compound 0.949 µM
[18] = second compound 0.01 µM, first compound 3 µM
[19] = second compound 0.0316 µM, first compound 0.00949 µM
[20] = second compound 0.0316 µM, first compound 0.03 µM
[21] = second compound 0.0316 µM, first compound 0.0949 µM
[22] = second compound 0.0316 µM, first compound 0.3 µM
[23] = second compound 0.0316 µM, first compound 0.949 µM
[24] = second compound 0.0316 µM, first compound 3 µM
[25] = second compound 0.1 µM, first compound 0.00949 µM
[26] = second compound 0.1 µM, first compound 0.03 µM
[27] = second compound 0.1 µM, first compound 0.0949 µM
[28] = second compound 0.1 µM, first compound 0.3 µM
[29] = second compound 0.1 µM, first compound 0.949 µM
[30] = second compound 0.1 µM, first compound 3 µM
[31] = second compound 0.316 µM, first compound 0.00949 µM
[32] = second compound 0.316 µM, first compound 0.03 µM
[33] = second compound 0.316 µM, first compound 0.0949 µM
[34] = second compound 0.316 µM, first compound 0.3 µM
[35] = second compound 0.316 µM, first compound 0.949 µM
[36] = second compound 0.316 µM, first compound 3 µM
[37] = second compound 1 µM, first compound 0.00949 µM
[38] = second compound 1 µM, first compound 0.03 µM
[39] = second compound 1 µM, first compound 0.0949 µM
[40] = second compound 1 µM, first compound 0.3 µM
[41] = second compound 1 µM, first compound 0.949 µM
[42] = second compound 1 µM, first compound 3 µM
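Also: spheroids exposed to compounds for 7 days.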
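For viability, T/C in this document: 100% = DMSO vehicle control wells.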

Compound: Cc1nc(N2CCC3(CC2)COC(C)C3N)c(CO)nc1Sc1ccnc(N)c1Cl (stereo not given) + CNC(C)C(=O)NC1CN(S(=O)(=O)c2cccc(S(=O)(=O)N3CCC4CCC(C(=O)NC(c5ccccc5)c5ccccc5)N4C(=O)C(NC(=O)C(C)NC)C3)c2)CCC2CCC(C(=O)NC(c3ccccc3)c3ccccc3)N2C1=O
- pIC50 [1]: < 5.52
- pIC50 [2]: < 5.52
- pIC50 [3]: < 5.52
- pIC50 [4]: < 5.52
- pIC50 [5]: < 5.52
- pIC50 [6]: < 5.52
- viability, T/C [7]: 99.5%
- viability, T/C [8]: 88.7%
- viability, T/C [9]: 73.2%
- viability, T/C [10]: 86.7%
- viability, T/C [11]: 73.4%
- viability, T/C [12]: 55%
- viability, T/C [13]: 109%
- viability, T/C [14]: 74%
- viability, T/C [15]: 79.4%
- viability, T/C [16]: 87.7%
- viability, T/C [17]: 69.9%
- viability, T/C [18]: 57.9%
- viability, T/C [19]: 90%
- viability, T/C [20]: 83.1%
- viability, T/C [21]: 81.1%
- viability, T/C [22]: 73.4%
- viability, T/C [23]: 63.6%
- viability, T/C [24]: 55%
- viability, T/C [25]: 94.6%
- viability, T/C [26]: 79.5%
- viability, T/C [27]: 82.3%
- viability, T/C [28]: 68.5%
- viability, T/C [29]: 60.1%
- viability, T/C [30]: 60.1%
- viability, T/C [31]: 82.9%
- viability, T/C [32]: 74.9%
- viability, T/C [33]: 77.4%
- viability, T/C [34]: 67.6%
- viability, T/C [35]: 62.5%
- viability, T/C [36]: 52.9%
- viability, T/C [37]: 82.7%
- viability, T/C [38]: 79.8%
- viability, T/C [39]: 74.6%
- viability, T/C [40]: 73%
- viability, T/C [41]: 73.9%
- viability, T/C [42]: 57.6%

Compound: CCN1C(C(=O)NC23CCC(C(=O)O)(CC2)CC3)C(c2cccc(Cl)c2F)C2(C(=O)Nc3cc(Cl)ccc32)C12CCCCC2 (stereo not given) + CNC(C)C(=O)NC1CN(S(=O)(=O)c2cccc(S(=O)(=O)N3CCC4CCC(C(=O)NC(c5ccccc5)c5ccccc5)N4C(=O)C(NC(=O)C(C)NC)C3)c2)CCC2CCC(C(=O)NC(c3ccccc3)c3ccccc3)N2C1=O
- pIC50 [1]: < 5.52
- pIC50 [2]: < 5.52
- pIC50 [3]: < 5.52
- pIC50 [4]: < 5.52
- pIC50 [5]: < 5.52
- pIC50 [6]: < 5.52
- viability, T/C [7]: 110%
- viability, T/C [8]: 110%
- viability, T/C [9]: 89.7%
- viability, T/C [10]: 111%
- viability, T/C [11]: 99.5%
- viability, T/C [12]: 97.5%
- viability, T/C [13]: 111%
- viability, T/C [14]: 90.1%
- viability, T/C [15]: 99.4%
- viability, T/C [16]: 98.8%
- viability, T/C [17]: 102%
- viability, T/C [18]: 103%
- viability, T/C [19]: 106%
- viability, T/C [20]: 78.3%
- viability, T/C [21]: 91.3%
- viability, T/C [22]: 96.3%
- viability, T/C [23]: 85.9%
- viability, T/C [24]: 85.3%
- viability, T/C [25]: 86.8%
- viability, T/C [26]: 92.4%
- viability, T/C [27]: 81.9%
- viability, T/C [28]: 92%
- viability, T/C [29]: 93.3%
- viability, T/C [30]: 96.4%
- viability, T/C [31]: 70.1%
- viability, T/C [32]: 82.4%
- viability, T/C [33]: 97.7%
- viability, T/C [34]: 83.3%
- viability, T/C [35]: 82.1%
- viability, T/C [36]: 88.2%
- viability, T/C [37]: 85.2%
- viability, T/C [38]: 102%
- viability, T/C [39]: 90.1%
- viability, T/C [40]: 83%
- viability, T/C [41]: 84.9%
- viability, T/C [42]: 96.4%

Compound: NC1CCC(NC2CC2c2ccccc2)CC1 (stereo not given)
- viability, T/C (compound 0.000316 µM): 104% and 94% and 98.2%
- viability, T/C (compound 0.001 µM): 124% and 120% and 99.5%
- viability, T/C (compound 0.00316 µM): 136% and 105% and 97.8%
- viability, T/C (compound 0.01 µM): 128% and 117% and 109%
- viability, T/C (compound 0.0316 µM): 128% and 103% and 93.2%
- viability, T/C (compound 0.1 µM): 117% and 99.7% and 89.2%
- pIC50 (curve of compound): < 7.00

Compound: C=C(F)C(=O)N1CCN(c2nc(OCC3CCCN3C)nc3c2CCN(c2cccc4cccc(Cl)c24)C3)CC1CC#N (stereo not given) + CCN1C(C(=O)NC23CCC(C(=O)O)(CC2)CC3)C(c2cccc(Cl)c2F)C2(C(=O)Nc3cc(Cl)ccc32)C12CCCCC2
- pIC50 (curve of first compound, second compound 0.00949 µM): 5.32
- pIC50 (curve of first compound, second compound 0.03 µM): 5.28
- pIC50 (curve of first compound, second compound 0.0949 µM): 5.32
- pIC50 (curve of first compound, second compound 0.3 µM): 5.27
- pIC50 (curve of first compound, second compound 0.949 µM): 5.29
- pIC50 (curve of first compound, second compound 3 µM): 5.25
- viability, T/C (second compound 0.00949 µM, first compound 0.0316 µM): 107%
- viability, T/C (second compound 0.00949 µM, first compound 0.1 µM): 98.7%
- viability, T/C (second compound 0.00949 µM, first compound 0.316 µM): 102%
- viability, T/C (second compound 0.00949 µM, first compound 1 µM): 95.6%
- viability, T/C (second compound 0.00949 µM, first compound 3.16 µM): 79.4%
- viability, T/C (second compound 0.00949 µM, first compound 10 µM): 0.48%
- viability, T/C (second compound 0.03 µM, first compound 0.0316 µM): 117%
- viability, T/C (second compound 0.03 µM, first compound 0.1 µM): 108%
- viability, T/C (second compound 0.03 µM, first compound 0.316 µM): 111%
- viability, T/C (second compound 0.03 µM, first compound 1 µM): 91.7%
- viability, T/C (second compound 0.03 µM, first compound 3.16 µM): 90.2%
- viability, T/C (second compound 0.03 µM, first compound 10 µM): 2.78%
- viability, T/C (second compound 0.0949 µM, first compound 0.0316 µM): 113%
- viability, T/C (second compound 0.0949 µM, first compound 0.1 µM): 121%
- viability, T/C (second compound 0.0949 µM, first compound 0.316 µM): 108%
- viability, T/C (second compound 0.0949 µM, first compound 1 µM): 94%
- viability, T/C (second compound 0.0949 µM, first compound 3.16 µM): 81.8%
- viability, T/C (second compound 0.0949 µM, first compound 10 µM): 0.48%
- viability, T/C (second compound 0.3 µM, first compound 0.0316 µM): 109%
- viability, T/C (second compound 0.3 µM, first compound 0.1 µM): 97.7%
- viability, T/C (second compound 0.3 µM, first compound 0.316 µM): 96%
- viability, T/C (second compound 0.3 µM, first compound 1 µM): 92.4%
- viability, T/C (second compound 0.3 µM, first compound 3.16 µM): 91.6%
- viability, T/C (second compound 0.3 µM, first compound 10 µM): 0.41%
- viability, T/C (second compound 0.949 µM, first compound 0.0316 µM): 103%
- viability, T/C (second compound 0.949 µM, first compound 0.1 µM): 110%
- viability, T/C (second compound 0.949 µM, first compound 0.316 µM): 103%
- viability, T/C (second compound 0.949 µM, first compound 1 µM): 113%
- viability, T/C (second compound 0.949 µM, first compound 3.16 µM): 84.9%
- viability, T/C (second compound 0.949 µM, first compound 10 µM): 0.49%
- viability, T/C (second compound 3 µM, first compound 0.0316 µM): 94%
- viability, T/C (second compound 3 µM, first compound 0.1 µM): 109%
- viability, T/C (second compound 3 µM, first compound 0.316 µM): 102%
- viability, T/C (second compound 3 µM, first compound 1 µM): 86.2%
- viability, T/C (second compound 3 µM, first compound 3.16 µM): 101%
- viability, T/C (second compound 3 µM, first compound 10 µM): 0.33%

Compound: O=C(c1cc(Cc2n[nH]c(=O)c3ccccc23)ccc1F)N1CCN(C(=O)C2CC2)CC1
- viability, T/C (compound 0.0316 µM): 103% and 91.4% and 91.6%
- viability, T/C (compound 0.1 µM): 92.6% and 93.9% and 101%
- viability, T/C (compound 0.316 µM): 100% and 101% and 87.3%
- viability, T/C (compound 1 µM): 108% and 101% and 91.8%
- viability, T/C (compound 3.16 µM): 98.8% and 94.8% and 124%
- viability, T/C (compound 10 µM): 98.6% and 78.8% and 86.5%
- pIC50 (curve of compound): < 5.00
